Results on eleven molecules are retold here after patent US20250186541A1, “DLL3 TARGETING PEPTIDES AND CONSTRUCTS THEREOF” (MARIANA ONCOLOGY INC., priority 2023, published 2025).

For the assay, the target named is T1, human DLL3 (Homo sapiens, UniProt Q9NYJ7).
T1 construct: biotin (biotinylated)
T1 sequence (Q9NYJ7 27-618): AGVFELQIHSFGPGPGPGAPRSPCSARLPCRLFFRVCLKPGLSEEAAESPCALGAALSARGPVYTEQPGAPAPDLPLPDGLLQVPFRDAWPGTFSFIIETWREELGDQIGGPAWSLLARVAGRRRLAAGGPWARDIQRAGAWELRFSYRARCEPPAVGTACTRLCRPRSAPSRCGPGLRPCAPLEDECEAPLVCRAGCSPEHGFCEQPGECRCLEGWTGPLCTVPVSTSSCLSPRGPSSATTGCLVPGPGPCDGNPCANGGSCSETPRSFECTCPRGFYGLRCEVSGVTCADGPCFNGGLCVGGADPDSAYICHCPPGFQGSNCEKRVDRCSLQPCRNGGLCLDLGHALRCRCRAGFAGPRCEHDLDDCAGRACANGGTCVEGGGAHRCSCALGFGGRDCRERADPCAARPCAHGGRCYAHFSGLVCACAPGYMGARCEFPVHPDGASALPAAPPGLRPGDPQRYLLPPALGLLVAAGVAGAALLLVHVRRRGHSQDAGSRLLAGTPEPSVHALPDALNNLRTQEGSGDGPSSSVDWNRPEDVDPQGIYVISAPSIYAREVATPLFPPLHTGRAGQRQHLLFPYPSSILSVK
Description: Affinity determination by Surface Plasmon Resonance (SPR), Biacore, 1:1 binding model. Conditions: biotinylated human DLL3 on streptavidin chip, 25° C.; NB = nonbinding. Summed up: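 SPR with biotinylated human DLL3 captured on a streptavidin chip, with a reference surface subtracted. Samples were injected at several concentrations at 100 μL/min in phosphate buffer with 137 mM NaCl, 2.7 mM KCl, 0.05% P20 and 2% DMSO. Kinetic and affinity constants came from a 1:1 binding fit.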
Background: In SPR one partner is held on a chip, and binding of the other changes the refractive index at the surface.

SMILES strings stand for the structures. Numbered stars: 1 amine (or outer) side, 2 acyl side, 3 side chain; on linkers, the order of the positions; unused ones are H or OH. Bridge positions count the residues as written; N and C are the ends. Square brackets hold non-standard residues; d marks the D form. Peptide text beside a SMILES is read from it. * marks the point of attachment. X1 = C[C@@]1(C(=O)C[C@@H](Cc2ccccc2)C(=O)[*:2])CCCN1[*:1]; DOTA = O=C(O)CN1CCN(CC(=O)O)CCN(CC(=O)*)CCN(CC(=O)O)CC1; 1Nal = N[C@@H](Cc1cccc2ccccc12)C(=O)O; 2Nal = N[C@@H](Cc1ccc2ccccc2c1)C(=O)O; Ala(4-THP) = N[C@@H](CC1CCOCC1)C(=O)O; Gly(4-THP) = N[C@H](C(=O)O)C1CCOCC1; 3Pal = N[C@@H](Cc1cccnc1)C(=O)O; Chg = N[C@H](C(=O)O)C1CCCCC1; Tle = CC(C)(C)[C@H](N)C(=O)O; αMeP = C[C@@]1(C(=O)O)CCCN1; Pip = O=C(O)[C@@H]1CCCCN1

On to `CC(=O)N[C@H](C(=O)N[C@@H](CO)C(=O)N[C@@H](CC(=O)O)C(=O)N[C@H]1CSSC[C@@H](C(=O)N2CCC[C@@]2(C)C(=O)N[C@@H](Cc2ccccc2)C(=O)N[C@@H](CC(=O)O)C(=O)N[C@H](CCCCNC(=O)CN2CCN(CC(=O)O)CCN(CC(=O)O)CCN(CC(=O)O)CC2)C(N)=O)NC(=O)[C@H](CC(N)=O)NC(=O)[C@H](Cc2c[nH]c3ccccc23)NC(=O)[C@H](CCC(N)=O)NC(=O)[C@H](C2CCCCC2)NC(=O)[C@H](Cc2cccc3ccccc23)NC1=O)C1CCCCC1` [compound 123, Ac-(Chg)-S-D-C(3)-(1Nal)-Chg-Q-W-N-C(3)-(aMe-P)-F-D-D-Lys(DOTA)-CONH2] (Ac-[Chg]SDC[1Nal][Chg]QWNC[αMeP]FD[dK](DOTA)-NH2; disulfide 4-10), for which the dissociation constant (Kd) was determined as 0.34 nM.
`CC(=O)N[C@H](C(=O)N[C@@H](CO)C(=O)N[C@@H](CC(=O)O)C(=O)N[C@H]1CSSC[C@@H](C(=O)N2CCC[C@@]2(C)C(=O)N[C@@H](Cc2ccccc2)C(=O)N[C@@H](CC(=O)O)C(=O)N[C@H](CCCCNC(=O)CN2CCN(CC(=O)O)CCN(CC(=O)O)CCN(CC(=O)O)CC2)C(N)=O)NC(=O)[C@H](CC(N)=O)NC(=O)[C@H](Cc2ccc3ccccc3c2)NC(=O)[C@H](CCC(N)=O)NC(=O)[C@H](CC(C)C)NC(=O)[C@H](Cc2cccc3ccccc23)NC1=O)C1CCCCC1` [compound 124, Ac-(Chg)-S-D-C(3)-(1Nal)-L-Q-(2Nal)-N-C(3)-(aMe-P)-F-D-D-Lys(DOTA)-CONH2] (Ac-[Chg]SDC[1Nal]LQ[2Nal]NC[αMeP]FD[dK](DOTA)-NH2; disulfide 4-10) yielded a Kd of 0.15 nM.
Take `CC(=O)N[C@H](C)C(=O)N[C@H](CO)C(=O)N[C@@H](CC(=O)O)C(=O)N[C@H]1CSSC[C@@H](C(=O)N2CCC[C@@]2(C)C(=O)C[C@@H](Cc2ccccc2)C(=O)N[C@@H](CC(=O)O)C(=O)N[C@H](CCCCNC(=O)CN2CCN(CC(=O)O)CCN(CC(=O)O)CCN(CC(=O)O)CC2)C(N)=O)NC(=O)[C@H](CC(N)=O)NC(=O)[C@H](Cc2ccc3ccccc3c2)NC(=O)[C@H](CCC(N)=O)NC(=O)[C@H](C2CCCCC2)NC(=O)[C@H](Cc2cccc3ccccc23)NC1=O` [compound 126, Ac-(D-Ala)-(D-Ser)-D-C(3)-(1Nal)-(Chg)-Q-(2Nal)-N-C(3)-(aMe-P)-F-D-D-Lys(DOTA)-CONH2] (Ac-[dA][dS]DC[1Nal][Chg]Q[2Nal]NC[X1]D[dK](DOTA)-NH2; disulfide 4-10): the equilibrium dissociation constant (Kd) was found to be 0.26 nM. This Kd lies about 1.7-fold higher than the previous one.
`CC(=O)N[C@H](C)C(=O)N[C@H](CO)C(=O)N[C@@H](CC(=O)O)C(=O)N[C@H]1CSSC[C@@H](C(=O)N2CCC[C@@]2(C)C(=O)N[C@@H](Cc2ccccc2)C(=O)N[C@@H](CC(=O)O)C(=O)N[C@H](CCCCNC(=O)CN2CCN(CC(=O)O)CCN(CC(=O)O)CCN(CC(=O)O)CC2)C(N)=O)NC(=O)[C@H](CC(N)=O)NC(=O)[C@H](Cc2ccc3ccccc3c2)NC(=O)[C@H](Cc2cccnc2)NC(=O)[C@H](C2CCCCC2)NC(=O)[C@H](Cc2cccc3ccccc23)NC1=O` [compound 127, Ac-(D-Ala)-(D-Ser)-D-C(3)-(1Nal)-(Chg)-(3Pya)-(2Nal)-N-C(3)-(aMe-P)-F-D-D-Lys(DOTA)-CONH2] (Ac-[dA][dS]DC[1Nal][Chg][3Pal][2Nal]NC[αMeP]FD[dK](DOTA)-NH2; disulfide 4-10) had a Kd of 0.5 nM.
Consider `CC(=O)N[C@H](C(=O)N[C@@H](CO)C(=O)N[C@@H](CC(=O)O)C(=O)N[C@H]1CSSC[C@@H](C(=O)N2CCC[C@@]2(C)C(=O)N[C@@H](Cc2ccccc2)C(=O)N[C@@H](CC(=O)O)C(=O)N[C@H](CCCCNC(=O)CN2CCN(CC(=O)O)CCN(CC(=O)O)CCN(CC(=O)O)CC2)C(N)=O)NC(=O)[C@H](CC(N)=O)NC(=O)[C@H](Cc2ccc3ccccc3c2)NC(=O)[C@H](CCC(N)=O)NC(=O)[C@H](C(C)(C)C)NC(=O)[C@H](Cc2cccc3ccccc23)NC1=O)C1CCCCC1` [compound 129, Ac-(Chg)-S-D-C(3)-(1Nal)-(TBG)-Q-(2Nal)-N-C(3)-(aMe-P)-F-D-D-Lys(DOTA)-CONH2] (Ac-[Chg]SDC[1Nal][Tle]Q[2Nal]NC[αMeP]FD[dK](DOTA)-NH2; disulfide 4-10), for which the “SPR KD (nM)” value is listed as “slow kon”.
Turning to `CC(=O)N[C@H](C(=O)N[C@@H](CO)C(=O)N[C@@H](CC(=O)O)C(=O)N[C@H]1CSSC[C@@H](C(=O)N2CCC[C@@]2(C)C(=O)N[C@@H](Cc2ccccc2)C(=O)N[C@@H](CC(=O)O)C(=O)N[C@H](CCCCNC(=O)CN2CCN(CC(=O)O)CCN(CC(=O)O)CCN(CC(=O)O)CC2)C(N)=O)NC(=O)[C@H](CC(N)=O)NC(=O)[C@H](Cc2ccc3ccccc3c2)NC(=O)[C@H](CCC(N)=O)NC(=O)[C@@H]2CCCCN2C(=O)[C@H](Cc2cccc3ccccc23)NC1=O)C1CCCCC1` [compound 130, Ac-(Chg)-S-D-C(3)-(1Nal)-(PIP)-Q-(2Nal)-N-C(3)-(aMe-P)-F-D-D-Lys(DOTA)-CONH2] (Ac-[Chg]SDC[1Nal][Pip]Q[2Nal]NC[αMeP]FD[dK](DOTA)-NH2; disulfide 4-10), the “SPR KD (nM)” value is on record as “slow kon”.
With `CC(=O)N[C@H](C(=O)N[C@@H](CO)C(=O)N[C@@H](CC(=O)O)C(=O)N[C@H]1CSSC[C@@H](C(=O)N2CCC[C@@]2(C)C(=O)N[C@@H](Cc2ccccc2)C(=O)N[C@@H](CC(=O)O)C(=O)N[C@H](CCCCNC(=O)CN2CCN(CC(=O)O)CCN(CC(=O)O)CCN(CC(=O)O)CC2)C(N)=O)NC(=O)[C@H](CC(N)=O)NC(=O)[C@H](Cc2ccc3ccccc3c2)NC(=O)[C@H](CCC(N)=O)NC(=O)[C@H](C(C)(C)C)NC(=O)[C@H](Cc2cccc3ccccc23)NC1=O)C1CCCCC1` [compound 131, Ac-(Chg)-S-D-C(3)-(1Nal)-(D-Leu)-Q-(2Nal)-N-C(3)-(aMe-P)-F-D-D-Lys(DOTA)-CONH2] (Ac-[Chg]SDC[1Nal][Tle]Q[2Nal]NC[αMeP]FD[dK](DOTA)-NH2; disulfide 4-10), the Kd came to 0.95 nM.
On the same count and under the same terms, the figure for `CC(=O)N[C@H](C(=O)N[C@@H](CO)C(=O)N[C@@H](CC(=O)O)C(=O)N[C@H]1CSSC[C@@H](C(=O)N2CCC[C@@]2(C)C(=O)N[C@@H](Cc2ccccc2)C(=O)N[C@@H](CC(=O)O)C(=O)N[C@H](CCCCNC(=O)CN2CCN(CC(=O)O)CCN(CC(=O)O)CCN(CC(=O)O)CC2)C(N)=O)NC(=O)[C@H](CC(N)=O)NC(=O)[C@H](Cc2c[nH]c3ccccc23)NC(=O)[C@H](CC2CCOCC2)NC(=O)[C@H](CC(C)C)NC(=O)[C@H](Cc2cccc3ccccc23)NC1=O)C1CCCCC1` [compound 132, Ac-(Chg)-S-D-C(3)-(1Nal)-L-(THPA)-W-N-C(3)-(aMe-P)-F-D-[D-Lys(DOTA)]-NH2] (Ac-[Chg]SDC[1Nal]L[Ala(4-THP)]WNC[αMeP]FD[dK](DOTA)-NH2; disulfide 4-10) is 0.21 nM; for `CC(=O)N[C@H](C(=O)N[C@@H](CO)C(=O)N[C@@H](CC(=O)O)C(=O)N[C@H]1CSSC[C@@H](C(=O)N2CCC[C@@]2(C)C(=O)N[C@@H](Cc2ccccc2)C(=O)N[C@@H](CC(=O)O)C(=O)N[C@H](CCCCNC(=O)CN2CCN(CC(=O)O)CCN(CC(=O)O)CCN(CC(=O)O)CC2)C(N)=O)NC(=O)[C@H](CC(N)=O)NC(=O)[C@H](Cc2c[nH]c3ccccc23)NC(=O)[C@H](C2CCOCC2)NC(=O)[C@H](CC(C)C)NC(=O)[C@H](Cc2cccc3ccccc23)NC1=O)C1CCCCC1` [compound 133, Ac-(Chg)-S-D-C(3)-(1Nal)-L-(THPG)-W-N-C(3)-(aMe-P)-F-D-[D-Lys(DOTA)]-NH2] (Ac-[Chg]SDC[1Nal]L[Gly(4-THP)]WNC[αMeP]FD[dK](DOTA)-NH2; disulfide 4-10) it is above 30 nM; for `CC(=O)N[C@H](C(=O)N[C@@H](CO)C(=O)N[C@@H](CC(=O)O)C(=O)N[C@H]1CSSC[C@@H](C(=O)N2CCC[C@@]2(C)C(=O)N[C@@H](Cc2ccccc2)C(=O)N[C@@H](CC(=O)O)C(=O)N[C@H](CCCCNC(=O)CN2CCN(CC(=O)O)CCN(CC(=O)O)CCN(CC(=O)O)CC2)C(N)=O)NC(=O)[C@H](CC2CCOCC2)NC(=O)[C@H](Cc2c[nH]c3ccccc23)NC(=O)[C@H](CCC(N)=O)NC(=O)[C@H](CC(C)C)NC(=O)[C@H](Cc2cccc3ccccc23)NC1=O)C1CCCCC1` [compound 134, Ac-(Chg)-S-D-C(3)-(1Nal)-L-Q-W-(THPA)-C(3)-(aMe-P)-F-D-[D-Lys(DOTA)]-NH2] (Ac-[Chg]SDC[1Nal]LQW[Ala(4-THP)]C[αMeP]FD[dK](DOTA)-NH2; disulfide 4-10) it is 3.52 nM.
Same read-out and setting: the figure for `CC(=O)N[C@H](C(=O)N[C@@H](CO)C(=O)N[C@@H](CC(=O)O)C(=O)N[C@H]1CSSC[C@@H](C(=O)N2CCC[C@@]2(C)C(=O)N[C@@H](Cc2ccccc2)C(=O)N[C@@H](CC(=O)O)C(=O)N[C@H](CCCCNC(=O)CN2CCN(CC(=O)O)CCN(CC(=O)O)CCN(CC(=O)O)CC2)C(N)=O)NC(=O)[C@H](C2CCOCC2)NC(=O)[C@H](Cc2c[nH]c3ccccc23)NC(=O)[C@H](CCC(N)=O)NC(=O)[C@H](CC(C)C)NC(=O)[C@H](Cc2cccc3ccccc23)NC1=O)C1CCCCC1` [compound 135, Ac-(Chg)-S-D-C(3)-(1Nal)-L-Q-W-(THPG)-C(3)-(aMe-P)-F-D-[D-Lys(DOTA)]-NH2] (Ac-[Chg]SDC[1Nal]LQW[Gly(4-THP)]C[αMeP]FD[dK](DOTA)-NH2; disulfide 4-10) is above 30 nM.

The Kd is a measure of binding affinity in units of concentration. Lower therefore signals a tighter complex.
